# From paper PMC10396955, “2-Oxabicyclo[2.1.1]hexanes as saturated bioisosteres of the ortho-substituted phenyl ring” (Nature Chemistry, 2023)
# Where two headings read alike, the source gives them in different places.
# Key:
# physchem = assay type: physicochemical; conditions: for D (partition ratio), incubation 1 / D (partition ratio), incubation 2 / D (partition ratio), incubation 3: Table S2, n-octanol/PBS pH 7.4
# Description: Determination of Distribution Coefficient (LogD, pH 7.4) […]
# n-octanol – phosphate buffered saline (PBS), pH 7.4. Distribution coefficient (or LogD) is a […]
# Phosphate buffered saline, tablet (Sigma-Aldrich, USA; Cat # P4417)
# Acetic acid (Enamine, Ukraine.)
# DMSO stock solutions of the test compounds 10mM
# Gradient HPLC system (Shimadzu, Japan)
# MTR22 Multi Mix Rotator (UNICO, USA)
# Laboratory Centrifuge, Sigma 4-15C, Qiagen (SIGMA GmbH, Germany) […]
# allowed to mix in a rotator for 1 h at 30 rpm. Phase separation was assured by centrifugation for […]
# dilution. The samples (both phases) were analyzed using a HPLC system coupled with a tandem mass spectrometer. Mebendazole was used as a reference compound. […]
# where: SO – peak area of the analyte in octanol phase
# S P – peak area of the analyte in PBS buffer do – dilution coefficient for octanol phase dp – dilution coefficient for aqueous phase
# [1] = Kinetic solubility in phosphate-buffered saline, pH 7.4; assay type: physicochemical; conditions: for solubility at 2 h: 25 °C, pH 7.4, aqueous buffer, kinetic from dmso stock
# Description: Analysis of Aqueous Solubility […]
# compound (Ondansetron) were assessed for kinetic solubility in phosphate-buffered saline, pH […]
# Phosphate buffered saline, pH 7.4 (Sigma-Aldrich, USA; Cat #P3813) […]
# MultiScreen HTS 96 Well Filter Plates (Millipore, Ireland; Cat # MSGVS2210) […]
# Matrix Multichannel Electronic Pipette 2-125 µL, 5-250 µL, 15-1250 µL (Thermo Scientific, […]
# Vacuum pump (Millipore, USA; Model # XX5500000)
# The measurements were performed using SpectraMax Plus reader in UV-Vis mode. Acquisition and analysis of the data were performed using SoftMax Pro v.5.4 (Molecular Devices) and Excel […]
# Kinetic solubility assay was performed according to the Enamine’s aqueous solubility SOP.
# Briefly, using a 20 mM stock solution of the compound in 100% DMSO dilutions were prepared to a theoretical concentration of 400 μM in duplicates in phosphate-buffered saline pH 7.4 […]
# for two hours and then filtered through HTS filter plates using a vacuum manifold. The filtrates of test compounds were diluted 2-fold with acetonitrile with 2% DMSO before measuring.
# In parallel, compound dilutions in acetonitrile/PBS (1:1) were prepared to theoretical […]
# DMSO to generate calibration curves. Ondansetron was used as reference compound to control proper assay performance. 200 μl of each sample was transferred to 96-well plate and measured in 200-550 nm range with 5 nm step.
# The concentrations of compounds in PBS filtrate are calculated using a dedicated Microsoft Excel calculation script. Proper absorbance wavelengths for calculations are selected for each compound manually based on absorbance maximums (absolute absorbance unit values for the minimum and maximum concentration points within 0 – 3 OD range). Each of the final datasets is additionally visually evaluated by the operator and goodness of fit (R2) is calculated for each calibration curve. The effective range of this assay is approximately 2-400 μM and the […]
# Fusarium verticillioides = test: Antifungal susceptibility testing (MIC, CLSI M38-A2 microdilution); assay type: cell-based
# Description: (§1) page 252: Antifungal susceptibility testing (determination of MIC values) The antifungal susceptibility tests were performed according to the Clinical and Laboratory Standards Institute (CLSI) […]-A2 protocol for mycelial fungi (1). Stock solutions were prepared by dissolving an appropriate amount of testing compounds in DMSO. Solutions of test compounds were added to the wells of a 96-well polystyrene microtiter plate (Colstar, USA) in the concentration range from 0.5 to 0.001 mg/mL. Mycelium growth was monitored photometrically at 490 nm by measuring the optical density of each well. Measurements were carried out two times: immediately after adding all components (RPMI 1640 broth, conidial suspension, test compound solutions) and after incubation plate at 26 °C for 48 h (2). MICs were the lowest testing compound concentrations that produced partial growth inhibition (50% of optical density relative to the control without testing compounds). The tests were performed in triplicate Results : Table S6. The MIC values of Fluxapyroxad , Boscalid , and their saturated analogues against Fusarium oxysporum , and Fusarium verticillioides Antifungal compaunds MIC, mg/mL Fusarium oxysporum Fusarium verticillioides Fluxapyroxad -* 0.250 Analogue (±)- 28 0.125 0.125 […] of 0.063 mg/mL. […]
# Fusarium oxysporum = test: as above; assay type: cell-based
# Description: as §1
# [2] = pH 7.4, LogD, pH 7.4, incubation 1
# [3] = pH 7.4, LogD, pH 7.4, incubation 3
# [4] = phosphate-buffered saline, Table S1, incubation 1, read-out: PBS solubility, pH 7.4, Incubation 1
# [5] = phosphate-buffered saline, Table S1, incubation 2, read-out: PBS solubility, pH 7.4, Incubation 2
# [6] = phosphate-buffered saline, experimental kinetic solubility in phosphate-buffered saline at pH 7.4, Fig. 3, read-out: Solubility
# [7] = Fusarium verticillioides, 48 h, Table S6, lowest concentration giving 50% of optical density relative to control, 26 °C, 48 h, read-out: MIC
# [8] = Fusarium verticillioides, Fig. 4e, read-out: MIC
# [9] = Table S6, lowest concentration giving 50% of optical density relative to control, 26 °C, 48 h
# [10] = pH 7.4, LogD, pH 7.4, incubation 2
# [11] = PBS solubility, pH 7.4, Incubation 1
# [12] = PBS solubility, pH 7.4, Incubation 2
Compound,"D (partition ratio), incubation 1 (physchem)","D (partition ratio), incubation 2 (physchem)","D (partition ratio), incubation 3 (physchem)","logD at 1 h (physchem; pH 7.4, LogD, pH 7.4 (mean))",logD at 1 h (physchem; [2]),logD at 1 h (physchem; [3]),"logD at 1 h (physchem; pH 7.4, logD (7.4))","solubility at 2 h [1, 4]","solubility at 2 h [1, 5]","solubility at 2 h [1, 6]",MIC (Fusarium verticillioides; [7]),MIC (Fusarium verticillioides; [8]),MIC (Fusarium oxysporum; Fig. 4e),MIC (Fusarium oxysporum; [9]),logD at 1 h (physchem; [10]),"solubility at 2 h [1, 11]","solubility at 2 h [1, 12]",solubility at 2 h ([1]; Solubility),also measured
Cn1cc(C(=O)N[C@@H]2[C@@H]3CC[C@@]2(c2cc(F)c(F)c(F)c2)C3)c(C(F)F)n1 (relative stereo) [Compound 28],3.24E+04,2.00E+04,1.32E+04,4.32,4.51,4.12,4.3,35 µM,33 µM,34 µM,125 µg/mL,125 µg/mL,125 µg/mL,125 µg/mL,,,,,
Cn1cc(C(=O)N[C@@H]2[C@H]3C[C@]2(c2cc(F)c(F)c(F)c2)CO3)c(C(F)F)n1 (relative stereo) [Compound 29],5.70E+02,6.13E+02,5.77E+02,2.77,2.76,2.76,2.8,151 µM,158 µM,155 µM,250 µg/mL,250 µg/mL,,,2.79,,,,"inhibition at 125 µg/mL (Fusarium oxysporum; at a concentration of 0.125 mg/mL, MIC not reached, read-out: Maximal inhibition of growth): 35.7 ± 2.4%"
O=C(N[C@@H]1[C@@H]2CC[C@@]1(c1ccc(Cl)cc1)C2)c1cccnc1Cl (relative stereo) [Compound 30],4.87E+02,3.16E+02,6.11E+02,2.66,2.69,2.79,3.5 ± 0.1,17 µM,18 µM,17 ± 0.3 µM,31 µg/mL,,31 µg/mL,31 µg/mL,2.5,,,,"increase of solubility relative to boscalid ([1]; kinetic solubility, PBS pH 7.4): ~ 50%; solubility at 2 h ([1]; phosphate-buffered saline, Table S1, mean of 2 incubations, 2 h, 2% DMSO, effective range approx. 2-400 μM, read-out: PBS solubility, pH 7.4, Mean): 17 µM; MIC (Fusarium verticillioides; Fig. 4e): 0.031 mg ml^–1"
O=C(N[C@@H]1[C@H]2C[C@]1(c1ccc(Cl)cc1)CO2)c1cccnc1Cl (relative stereo) [Compound 31],3.05E+03,3.16E+03,3.13E+03,3.5,3.48,3.5,2.7 ± 0.2,148 µM,157 µM,152 µM,,,250 µg/mL,250 µg/mL,3.5,,,,"melting point: 147 to 148 °C; inhibition at 250 µg/mL (Fusarium verticillioides; Fusarium verticillioides, read-out: Maximal inhibition of growth): 36.3 ± 1.9%"
"O=C(Nc1ccccc1-c1ccc(Cl)cc1)c1cccnc1Cl [Boscalid, reference compound]",3.62E+03,2.86E+03,4.07E+03,3.55,3.56,3.61,3.6,,,,,,250 µg/mL,250 µg/mL,3.46,9 µM,13 µM,11 µM,"inhibition at 63 µg/mL (Fusarium verticillioides; Fusarium verticillioides, at a concentration of 0.063 mg/mL, MIC not reached, read-out: Maximal inhibition of growth): 39.2 ± 2.7%"
"Cn1cc(C(=O)Nc2ccccc2-c2cc(F)c(F)c(F)c2)c(C(F)F)n1 [Fluxapyroxad, reference compound]",3.37E+03,2.99E+03,3.24E+03,3.51,3.53,3.51,3.5,,,,250 µg/mL,250 µg/mL,,,3.48,24 µM,27 µM,25 µM,"inhibition at 31 µg/mL (Fusarium oxysporum; at a concentration of 0.031 mg/mL, MIC not reached, read-out: Maximal inhibition of growth): 38 ± 1.9%"
